What was measured:
Type in all cases: in vivo
Abutilon theophrasti [1] = test: Post-emergence herbicidal efficacy at 320 g/ha, ABUTH; conditions: rated visually after about 3 weeks vs untreated controls, 100% = plants have died
From the text: (§1) Unwanted plants/weeds: • ABUTH: Abutilon theophrasti • ALOMY: Alopecurus myosuroides • AMARE: Amaranthus retroflexus • DIGSA: Digitaria sanguinalis • ECHCG: Echinochloa crus-galli • KCHSC: Kochia scoparia • LOLRI: Lolium rigidum • MATIN: Matricaria inodora • POAAN: Poa annua • POLCO: Polygonum convolvulus • SETVI: Setaria viridis • STEME: Stellaria media • VERPE: Veronica persica • VIOTR: Viola tricolor A. Post-Emergence Herbicidal Efficacy at 320 g/ha
(§2) Seeds of mono- and dicotyledonous weed plants were placed in plastic pots in sandy loam soil (doubly sown with in each case one species of mono- or dicotyledonous weed plants per pot), covered with soil and cultivated in a greenhouse under controlled growth conditions. 2 to 3 weeks after sowing, the test plants were treated at the one-leaf stage. The compounds of the invention, formulated in the form of wettable powders (WP) or as emulsion concentrates (EC), were applied to the green parts of the plants as aqueous suspension or emulsion with addition of 0.5% additive at a water application rate equivalent to 600 litres per hectare. After the test plants had been kept in the greenhouse under optimum growth conditions for about 3 weeks, the activity of the preparations was rated visually in comparison to untreated controls.
(§3) For example, 100% activity=the plants have died, 0% activity=like control plants.
(§4) Tables A1 to A10 below show the effects of selected compounds of the general formula (I) according to Table 1 on various harmful plants and at an application rate corresponding to 320 g/ha, which were obtained by the trial procedure specified above.

Stellaria media [2] = test: Post-emergence herbicidal efficacy at 320 g/ha, STEME; conditions: rated visually after about 3 weeks vs untreated controls, 100% = plants have died
From the text: as §1, §2, §3, §4

Digitaria sanguinalis [3] = test: Pre-emergence herbicide efficacy at 320 g/ha, DIGSA; conditions: scored visually after about 3 weeks vs untreated controls, 100% = plants have died
From the text: as §1
(§5) Seeds of mono- and dicotyledonous weed plants were placed in plastic pots in sandy loam soil (doubly sown with one species each of mono- or dicotyledonous weed plants per pot) and covered with soil. The compounds of the invention, formulated in the form of wettable powders (WP) or as emulsion concentrates (EC), were then applied to the surface of the covering soil as aqueous suspension or emulsion with addition of 0.5% additive at a water application rate of 600 litres per hectare (converted). After the treatment, the pots were placed in a greenhouse and kept under good growth conditions for the test plants. After about 3 weeks, the efficacy of the preparations was scored visually in comparison with untreated controls as percentages.
as §3
(§6) Tables C1 to C12 below show the effects of selected compounds of the general formula (I) according to Table 1 on various harmful plants and at an application rate corresponding to 320 g/ha, which were obtained by the trial procedure specified above.

Veronica persica [4] = test: Post-emergence herbicidal efficacy at 320 g/ha, VERPE; conditions: rated visually after about 3 weeks vs untreated controls, 100% = plants have died
From the text: as §1, §2, §3, §4

Poa annua = test: Pre-emergence herbicide efficacy at 320 g/ha, POAAN; conditions: scored visually after about 3 weeks vs untreated controls, 100% = plants have died
From the text: as §1, §5, §3, §6

Amaranthus retroflexus [5] = test: Pre-emergence herbicide efficacy at 320 g/ha, AMARE; conditions: scored visually after about 3 weeks vs untreated controls, 100% = plants have died
From the text: as §1, §5, §3, §6

Setaria viridis [6] = test: Pre-emergence herbicide efficacy at 320 g/ha, SETVI; conditions: scored visually after about 3 weeks vs untreated controls, 100% = plants have died
From the text: as §1, §5, §3, §6

Echinochloa crus-galli [7] = test: Post-emergence herbicidal efficacy at 320 g/ha, ECHCG; conditions: rated visually after about 3 weeks vs untreated controls, 100% = plants have died
From the text: as §1, §2, §3, §4

Veronica persica [8] = test: Pre-emergence herbicide efficacy at 320 g/ha, VERPE; conditions: scored visually after about 3 weeks vs untreated controls, 100% = plants have died
From the text: as §1, §5, §3, §6

Amaranthus retroflexus [9] = test: Post-emergence herbicidal efficacy at 320 g/ha, AMARE; conditions: rated visually after about 3 weeks vs untreated controls, 100% = plants have died
From the text: as §1, §2, §3, §4

Veronica persica [10] = test: Post-emergence herbicidal efficacy at 80 g/ha, VERPE; conditions: rated visually after about 3 weeks vs untreated controls, 100% = plants have died
From the text: as §1
(§7) Seeds of monocotyledonous and dicotyledonous weeds and crop plants were placed in sandy loam in plastic or organic planting pots, covered with soil and cultivated in a greenhouse under controlled growth conditions. 2 to 3 weeks after sowing, the test plants were treated at the one-leaf stage. The compounds of the invention, formulated in the form of wettable powders (WP) or as emulsion concentrates (EC), were then sprayed onto the green parts of the plants as aqueous suspension or emulsion with addition of 0.5% additive at a water application rate of 600 l/ha (converted). After the test plants had been kept in the greenhouse under optimum growth conditions for about 3 weeks, the activity of the preparations was rated visually in comparison to untreated controls. For example, 100% activity=the plants have died, 0% activity=like control plants.
(§8) Tables B1 to B11 below show the effects of selected compounds of the general formula (I) according to Table 1 on various harmful plants and an application rate corresponding to 80 g/ha, which were obtained by the experimental procedure mentioned above.

Kochia scoparia [11] = test: Post-emergence herbicidal efficacy at 80 g/ha, KCHSC; conditions: rated visually after about 3 weeks vs untreated controls, 100% = plants have died
From the text: as §1, §7, §8

Amaranthus retroflexus [12] = test: Post-emergence herbicidal efficacy at 80 g/ha, AMARE; conditions: rated visually after about 3 weeks vs untreated controls, 100% = plants have died
From the text: as §1, §7, §8

Digitaria sanguinalis [13] = test: Post-emergence herbicidal efficacy at 320 g/ha, DIGSA; conditions: rated visually after about 3 weeks vs untreated controls, 100% = plants have died
From the text: as §1, §2, §3, §4

Kochia scoparia [14] = test: Post-emergence herbicidal efficacy at 320 g/ha, KCHSC; conditions: rated visually after about 3 weeks vs untreated controls, 100% = plants have died
From the text: as §1, §2, §3, §4

Stellaria media [15] = test: Pre-emergence herbicide efficacy at 320 g/ha, STEME; conditions: scored visually after about 3 weeks vs untreated controls, 100% = plants have died
From the text: as §1, §5, §3, §6

Abutilon theophrasti [16] = test: Pre-emergence herbicide efficacy at 320 g/ha, ABUTH; conditions: scored visually after about 3 weeks vs untreated controls, 100% = plants have died
From the text: as §1, §5, §3, §6

Kochia scoparia [17] = test: Pre-emergence herbicide efficacy at 320 g/ha, KCHSC; conditions: scored visually after about 3 weeks vs untreated controls, 100% = plants have died
From the text: as §1, §5, §3, §6

Amaranthus retroflexus [18] = test: Pre-emergence herbicide efficacy at 80 g/ha, AMARE; conditions: scored visually after about 3 weeks vs untreated controls, 100% = plants have died
From the text: as §1
(§9) Seeds of monocotyledonous and dicotyledonous weed plants and crop plants were placed in plastic or organic planting pots and covered with soil. The compounds of the invention, formulated in the form of wettable powders (WP) or as emulsion concentrates (EC), were then applied to the surface of the covering soil as aqueous suspension or emulsion with addition of 0.5% additive at a water application rate equivalent to 600 l/ha. After the treatment, the pots were placed in a greenhouse and kept under good growth conditions for the test plants. After about 3 weeks, the efficacy of the preparations was scored visually in comparison with untreated controls as percentages. For example, 100% activity=the plants have died, 0% activity=like control plants.
(§10) Tables D1 to D12 below show the effects of selected compounds of the general formula (I) according to Table 1 on various harmful plants and an application rate corresponding to 80 g/ha, which were obtained by the experimental procedure mentioned above.

Setaria viridis [19] = test: Pre-emergence herbicide efficacy at 80 g/ha, SETVI
From the text: as §1, §9, §10

Viola tricolor = test: Pre-emergence herbicide efficacy at 80 g/ha, VIOTR
From the text: as §1, §9, §10

Echinochloa crus-galli [20] = test: Pre-emergence herbicide efficacy at 320 g/ha, ECHCG; conditions: scored visually after about 3 weeks vs untreated controls, 100% = plants have died
From the text: as §1, §5, §3, §6

## Cc1cccc(Nc2ncc(Cl)cn2)c1-n1cc(C(F)(F)F)cn1 [Example 1-49]
Abutilon theophrasti [1]
  Post-emergence efficacy at 320 g/ha against ABUTH in %: 90%
Stellaria media [2]
  Post-emergence efficacy at 320 g/ha against STEME in %: 90%
Digitaria sanguinalis [3]
  Pre-emergence efficacy at 320 g/ha against DIGSA in %: 90%
Veronica persica [4]
  Post-emergence efficacy at 320 g/ha against VERPE in %: 90%
Poa annua
  Pre-emergence efficacy at 320 g/ha against POAAN in %: 100%
Amaranthus retroflexus [5]
  Pre-emergence efficacy at 320 g/ha against AMARE in %: 100%
Setaria viridis [6]
  Pre-emergence efficacy at 320 g/ha against SETVI in %: 100%
Echinochloa crus-galli [7]
  Post-emergence efficacy at 320 g/ha against ECHCG in %: 90%
Veronica persica [8]
  Pre-emergence efficacy at 320 g/ha against VERPE in %: 100%
Amaranthus retroflexus [9]
  Post-emergence efficacy at 320 g/ha against AMARE in %: 90%

## Fc1cnc(Nc2ccccc2-n2cc(C(F)(F)F)cn2)nc1 [Example 1-77]
Veronica persica [10]
  Post-emergence efficacy at 80 g/ha against VERPE in %: 80%

## O=C(CCCC(F)(F)F)c1cccnc1Nc1ncc(Cl)cn1 [Example 2-8]
Kochia scoparia [11]
  Post-emergence efficacy at 80 g/ha against KCHSC in %: 90%
Veronica persica [10]
  Post-emergence efficacy at 80 g/ha against VERPE in %: 90%
Amaranthus retroflexus [12]
  Post-emergence efficacy at 80 g/ha against AMARE in %: 100%

## N#Cc1cccc(Nc2ncc(Cl)cn2)c1-c1ccc(F)c(F)c1 [Example 1-29]
Stellaria media [2]
  Post-emergence efficacy at 320 g/ha against STEME in %: 90%
Digitaria sanguinalis [13]
  Post-emergence efficacy at 320 g/ha against DIGSA in %: 90%
Veronica persica [4]
  Post-emergence efficacy at 320 g/ha against VERPE in %: 100%
Amaranthus retroflexus [5]
  Pre-emergence efficacy at 320 g/ha against AMARE in %: 100%
Amaranthus retroflexus [9]
  Post-emergence efficacy at 320 g/ha against AMARE in %: 100%
Kochia scoparia [14]
  Post-emergence efficacy at 320 g/ha against KCHSC in %: 100%

## Fc1cccc(Nc2ncccn2)c1-c1cc(C(F)F)no1 [Example 1-35]
Abutilon theophrasti [1]
  Post-emergence efficacy at 320 g/ha against ABUTH in %: 100%
Stellaria media [2]
  Post-emergence efficacy at 320 g/ha against STEME in %: 100%
Digitaria sanguinalis [3]
  Pre-emergence efficacy at 320 g/ha against DIGSA in %: 90%
Stellaria media [15]
  Pre-emergence efficacy at 320 g/ha against STEME in %: 100%
Veronica persica [4]
  Post-emergence efficacy at 320 g/ha against VERPE in %: 100%
Poa annua
  Pre-emergence efficacy at 320 g/ha against POAAN in %: 100%
Abutilon theophrasti [16]
  Pre-emergence efficacy at 320 g/ha against ABUTH in %: 100%
Amaranthus retroflexus [5]
  Pre-emergence efficacy at 320 g/ha against AMARE in %: 100%
Setaria viridis [6]
  Pre-emergence efficacy at 320 g/ha against SETVI in %: 90%
Veronica persica [8]
  Pre-emergence efficacy at 320 g/ha against VERPE in %: 90%
Amaranthus retroflexus [9]
  Post-emergence efficacy at 320 g/ha against AMARE in %: 100%
Kochia scoparia [17]
  Pre-emergence efficacy at 320 g/ha against KCHSC in %: 100%
Kochia scoparia [14]
  Post-emergence efficacy at 320 g/ha against KCHSC in %: 100%

## Cc1cnn(-c2c(C#N)cccc2Nc2ncc(F)cn2)c1 [Example 1-67]
Abutilon theophrasti [1]
  Post-emergence efficacy at 320 g/ha against ABUTH in %: 90%
Stellaria media [2]
  Post-emergence efficacy at 320 g/ha against STEME in %: 100%
Kochia scoparia [11]
  Post-emergence efficacy at 80 g/ha against KCHSC in %: 90%
Stellaria media [15]
  Pre-emergence efficacy at 320 g/ha against STEME in %: 100%
Veronica persica [10]
  Post-emergence efficacy at 80 g/ha against VERPE in %: 90%
Veronica persica [4]
  Post-emergence efficacy at 320 g/ha against VERPE in %: 100%
Poa annua
  Pre-emergence efficacy at 320 g/ha against POAAN in %: 90%
Amaranthus retroflexus [12]
  Post-emergence efficacy at 80 g/ha against AMARE in %: 100%
Amaranthus retroflexus [5]
  Pre-emergence efficacy at 320 g/ha against AMARE in %: 100%
Setaria viridis [6]
  Pre-emergence efficacy at 320 g/ha against SETVI in %: 100%
Veronica persica [8]
  Pre-emergence efficacy at 320 g/ha against VERPE in %: 90%
Amaranthus retroflexus [9]
  Post-emergence efficacy at 320 g/ha against AMARE in %: 100%
Kochia scoparia [17]
  Pre-emergence efficacy at 320 g/ha against KCHSC in %: 100%
Amaranthus retroflexus [18]
  Pre-emergence efficacy at 80 g/ha against AMARE in %: 100%
Setaria viridis [19]
  Pre-emergence efficacy against SETVI: 100%
Viola tricolor
  Pre-emergence efficacy against VIOTR: 90%
Echinochloa crus-galli [20]
  Pre-emergence efficacy at 320 g/ha against ECHCG in %: 100%
Kochia scoparia [14]
  Post-emergence efficacy at 320 g/ha against KCHSC in %: 90%
